Reference: ChEMBL document CHEMBL1158938, “In vitro effects of tremorgenic mycotoxins” (J Nat Prod, 1991)
The source made the active and inactive calls. No cut-off for these calls is given here.

Experiments:
Ileum [1] = experiment: Induction of electrically-stimulated guinea pig ileum contraction at 100 ng/ml relative to control in presence of acetylcholine; type: functional, Cavia porcellus
Ileum [2] = experiment: Induction of electrically-stimulated guinea pig ileum twitch contraction at 10 ng/ml relative to control in presence of hyoscine; type: functional, Cavia porcellus
Ileum [3] = experiment: Induction of electrically-stimulated guinea pig ileum twitch contraction at 1 ug/ml relative to control in presence of hyoscine; type: functional, Cavia porcellus
Ileum [4] = experiment: Induction of electrically-stimulated guinea pig ileum contraction at 1 ug/ml relative to control in presence of acetylcholine; type: functional, Cavia porcellus
Ileum [5] = experiment: Induction of electrically-stimulated guinea pig ileum contraction at 10 ng/ml relative to control in presence of acetylcholine; type: functional, Cavia porcellus
[6] = Tremorgenic activity in ip dosed mouse; type: ADME, organism-based; conditions: in vivo
Ileum [7] = experiment: Induction of electrically-stimulated guinea pig ileum twitch contraction at 100 ng/ml relative to control in presence of hyoscine; type: functional, Cavia porcellus
Ileum [8] = experiment: Induction of guinea pig ileum contraction; type: functional, tissue-based; conditions: Cavia porcellus
Ileum [9] = experiment: Induction of electrically-stimulated guinea pig ileum twitch contraction at 10 ng/ml; type: functional, tissue-based; conditions: Cavia porcellus

| Compound | Activity (Ileum [1]) [%] | Activity (Ileum [2]) [%] | Activity (Ileum [3]) [%] | Activity (Ileum [4]) [%] | Activity (Ileum [5]) [%] | ED50 [6] [mg/kg] | Activity (Ileum [7]) [%] | Activity (Ileum [8]) | Activity (Ileum [9]) |
| --- | --- | --- | --- | --- | --- | --- | --- | --- | --- |
| C=C1Cc2ccc3[nH]c4c5c3c2[C@H]2[C@@H]1C[C@@H]2C(C)(C)O[C@H]5[C@@H]1CC[C@@]2(O)[C@@]35O[C@@H]3[C@@H](O)[C@@H](C(=C)C)O[C@H]5CC[C@]2(C)[C@@]41C [PENITREM B] | 96 | 12 | 10 | 117 | 111 | 5 | 10 |  |  |
| COc1ccc2c3c4n(c2c1)[C@H](C=C(C)C)OOC(C)(C)C[C@@H]4N1C(=O)[C@@H]2CCCN2C(=O)[C@]1(O)[C@H]3O [VERRUCULOGEN] | 123 | 7 | 14 | 109 | 127 | 0.39 | 11 | Dose-dependent effect | Active |
| CC(C)(O)[C@H]1O[C@H]2CC[C@@]3(C)[C@@](O)(CC[C@H]4Cc5c([nH]c6ccccc56)[C@@]43C)C2=CC1=O [PAXILLINE] | 118 | 9 | 2 | 126 | 121 | 25 | 11 | Dose-dependent effect |  |
